What was measured:
[1] = Human Metabolome Database; cited from earlier work
[2] = cited from earlier work
[3] = Plasma stability assay and LC-MS/MS; stability in solution; assay type: in vitro ADME; conditions: compared with the other designed compounds
Procedure: Having described the compounds generally, including the preferred compound candidates for use in the treatment of PD, the method utilized to test and produce the compounds may now be described. […] The stability of these compounds is determined using a plasma stability assay and LC-MS/MS. The assays are utilized to assess each compound's activity and cellular permeability human dopaminergic neuronal precursor cell lines and Caco-2 cells. […] A in silico analysis may be used to predict bioavailability, BBB penetration, and PK/PD profiles in the peripheral and central nervous system.

stability in aqueous solutions and plasma [3]	Compound	lipophilicity, determined experimental value [1]	bioavailability ([2]; after peripheral conversion and gut metabolism) [%]	fraction of oral dose that may reach the brain ([2]; certain formulations, at best)
–	N[C@@H](Cc1ccc(O)c(O)c1)C(=O)O [L-Dopa, L-3,4-dihydroxyphenylalanine]	−2.39	1	5-10%
more stable	N[C@@H](Cc1ccc(OC(=O)CCCC[C@@H]2CCSS2)c(O)c1)C(=O)O [RG-1]	–	–	–
more stable	N[C@@H](Cc1ccc(OC(=O)CCCC[C@@H]2CCSS2)c(O)c1)B(O)O [RG-2]	–	–	–

Compound	stability in aqueous solutions and plasma [3]	lipophilicity, determined experimental value [1]	bioavailability ([2]; after peripheral conversion and gut metabolism) [%]	fraction of oral dose that may reach the brain ([2]; certain formulations, at best)
C[Si](C)(C)CCc1ccc(C[C@@H](N)Cc2ccc(OC(=O)CCCC[C@@H]3CCSS3)c(O)c2)cc1 [RG-4]	more stable	–	–	–

Source: patent US20220213128A1 (RockGen Therapeutics LLC, priority 2021, published 2022)
